In data set [1] the target is recombinant human Estrogen Receptor alpha ligand binding domain (ER alpha-LBD (GST)) (Homo sapiens (Human), UniProt P03372). As to the kind of experiment: ERα binding assay (LanthaScreen TR-FRET competition).
Experimental: The ability of compounds to bind to isolated Estrogen Receptor Alpha Ligand binding domain (ER alpha—LBD (GST)) was assessed in competition assays using a LanthaScreen Time-Resolved Fluorescence Resonance Energy Transfer (TR-FRET) detection end-point. For the LanthaScreen TR-FRET endpoint, a suitable fluorophore (Fluormone ES2, ThermoFisher, Product code P2645) and recombinant human Estrogen Receptor alpha ligand binding domain, residues 307-554 (expressed and purified in-house) were used to measure compound binding. The assay principle is that ER alpha-LBD (GST) is added to a fluorescent ligand to form a receptor/fluorophore complex. A terbium-labelled anti-GST antibody (Product code PV3551) is used to indirectly label the receptor by binding to its GST tag, and competitive binding is detected by a test compound's ability to displace the fluorescent ligand, resulting in a loss of TR-FRET signal between the Tb-anti-GST antibody and the tracer. The assay was performed as follows with all reagent additions carried out using the Beckman Coulter BioRAPTR FRD microfluidic workstation: • 1. Acoustic dispense 120 nL of the test compound into a black low volume 384 well assay plates. • 2. Prepare 1× ER alpha-LBD/Tb-antiGST Ab in ES2 screening buffer and incubate for 15 minutes. • 3. […] Cover the assay plate to protect the reagents from light and evaporation, and incubate at room temperature for 4 hours. • 5. Excite at 337 nm and measure the fluorescent emission signal of each well at 490 nm and 520 nm using the BMG PheraSTAR.
TR-FRET dose response data obtained with each compound was exported into a suitable software package (such as Origin or Genedata) to perform curve fitting analysis. Competitive ER alpha binding was expressed as an IC50 value.
Data set [2] deals with T1, Estrogen Receptor (ERα) in MCF-7 cells (Homo sapiens (Human), UniProt P03372). Description: MCF-7 ER down-regulation assay (immuno-fluorescence). Type of data set: cell-based.
Data set [3] deals with estrogen receptor (ERα) in CAMA-1 cells (Homo sapiens (Human), UniProt P03372). As to the kind of experiment: Western blotting assay, ER down-regulation in CAMA-1. Type of data set: cell-based. To be noted: CAMA-1, 100 nM compound, 48 h, vs 100 nM fulvestrant. A general note: A western blot detects proteins with antibodies after separation by electrophoresis.
Chain of estrogen receptor (ERα) in CAMA-1 cells (P03372 whole entry): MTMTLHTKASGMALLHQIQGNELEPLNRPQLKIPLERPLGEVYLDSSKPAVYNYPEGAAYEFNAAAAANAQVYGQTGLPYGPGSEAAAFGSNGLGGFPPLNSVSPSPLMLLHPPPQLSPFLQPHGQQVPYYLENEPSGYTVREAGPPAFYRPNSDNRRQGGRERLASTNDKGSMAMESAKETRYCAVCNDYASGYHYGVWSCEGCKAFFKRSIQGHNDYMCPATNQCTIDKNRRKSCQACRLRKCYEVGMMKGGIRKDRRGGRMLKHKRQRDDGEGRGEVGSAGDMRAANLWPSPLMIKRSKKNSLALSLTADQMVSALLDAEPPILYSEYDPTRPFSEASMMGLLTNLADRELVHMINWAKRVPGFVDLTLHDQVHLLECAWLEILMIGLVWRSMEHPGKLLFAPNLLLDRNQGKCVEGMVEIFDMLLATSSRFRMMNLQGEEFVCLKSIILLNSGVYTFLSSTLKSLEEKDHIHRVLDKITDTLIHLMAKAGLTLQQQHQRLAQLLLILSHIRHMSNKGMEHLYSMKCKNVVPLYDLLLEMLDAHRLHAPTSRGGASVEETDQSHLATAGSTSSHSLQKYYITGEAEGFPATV
Data set [4] deals with T1, Estrogen Receptor (ERα) in MCF-7 cells. As to the kind of experiment: Western blotting assay, ER down-regulation in MCF-7. The following applies: MCF-7, 100 nM compound, 48 h, vs 100 nM fulvestrant. Type of data set: cell-based.
Data set [5] can be described thus: Log D (shake flask, 1-octanol/aqueous buffer). The format is physicochemical. To be noted: 1-octanol/aqueous buffer, pH 7.4, pH 7.4.
Data set [6] can be described thus: Thermodynamic solubility (shake-flask). To be noted: aqueous phosphate buffer, 25 °C, pH 7.4, aqueous buffer, thermodynamic from solid, phosphate buffer pH 7.4, 24 hours. The format is physicochemical.
The nature of data set [7]: Human plasma protein binding (equilibrium dialysis). Type of data set: in vitro ADME. (In general: Equilibrium dialysis compares concentrations on both sides of a semipermeable membrane.)
Experimental: The automated equilibrium dialysis assay in human plasma uses the RED (Rapid Equilibrium Dialysis) Device and sample handling. The assay generally runs over two to three days including delivery of results. After dialysis for 18 hours, plasma and buffer samples are prepared for analysis by liquid chromatography and mass spectrometry. Samples are generally tested in singlicates and quantified by LC/MSMS by using a 7-point calibration curve in plasma. The compounds are pooled together in plasma pools up to 10 compounds. Three reference compounds are used in each run, Propranolol, Metoprolol and Warfarin. Warfarin is used as a control in each pool and Propranolol and Metoprolol are placed randomly in each run. An in-house Excel macro is used for preparation of files for the robot and the mass spectrometer and is also used for the calculations of fraction unbound (fu %) in plasma.
A further data set addresses hERG potassium channel (Homo sapiens (Human), UniProt Q12809).
In a further data set the target is ER (Homo sapiens (Human), UniProt P03372). To be noted: 500 mg monthly dose; cited from earlier work.
Chain of ER (P03372 whole entry): as above

Each structure is given as a SMILES string. pIC50: −log10 of the molar value. In brackets after ≈: the same amount, converted by molar mass. Where only a bound is given, the exact number is not on record here.

Chain of recombinant human Estrogen Receptor alpha ligand binding domain (ER alpha-LBD (GST)) (P03372 307-554): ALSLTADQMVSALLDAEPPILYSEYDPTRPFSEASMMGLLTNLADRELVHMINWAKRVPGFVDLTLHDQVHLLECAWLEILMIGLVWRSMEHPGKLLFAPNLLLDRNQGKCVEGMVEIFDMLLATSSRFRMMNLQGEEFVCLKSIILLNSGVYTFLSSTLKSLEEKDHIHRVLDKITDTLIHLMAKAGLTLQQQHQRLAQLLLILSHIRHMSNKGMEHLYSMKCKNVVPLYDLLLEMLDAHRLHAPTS
Chain of hERG potassium channel (Q12809 whole entry): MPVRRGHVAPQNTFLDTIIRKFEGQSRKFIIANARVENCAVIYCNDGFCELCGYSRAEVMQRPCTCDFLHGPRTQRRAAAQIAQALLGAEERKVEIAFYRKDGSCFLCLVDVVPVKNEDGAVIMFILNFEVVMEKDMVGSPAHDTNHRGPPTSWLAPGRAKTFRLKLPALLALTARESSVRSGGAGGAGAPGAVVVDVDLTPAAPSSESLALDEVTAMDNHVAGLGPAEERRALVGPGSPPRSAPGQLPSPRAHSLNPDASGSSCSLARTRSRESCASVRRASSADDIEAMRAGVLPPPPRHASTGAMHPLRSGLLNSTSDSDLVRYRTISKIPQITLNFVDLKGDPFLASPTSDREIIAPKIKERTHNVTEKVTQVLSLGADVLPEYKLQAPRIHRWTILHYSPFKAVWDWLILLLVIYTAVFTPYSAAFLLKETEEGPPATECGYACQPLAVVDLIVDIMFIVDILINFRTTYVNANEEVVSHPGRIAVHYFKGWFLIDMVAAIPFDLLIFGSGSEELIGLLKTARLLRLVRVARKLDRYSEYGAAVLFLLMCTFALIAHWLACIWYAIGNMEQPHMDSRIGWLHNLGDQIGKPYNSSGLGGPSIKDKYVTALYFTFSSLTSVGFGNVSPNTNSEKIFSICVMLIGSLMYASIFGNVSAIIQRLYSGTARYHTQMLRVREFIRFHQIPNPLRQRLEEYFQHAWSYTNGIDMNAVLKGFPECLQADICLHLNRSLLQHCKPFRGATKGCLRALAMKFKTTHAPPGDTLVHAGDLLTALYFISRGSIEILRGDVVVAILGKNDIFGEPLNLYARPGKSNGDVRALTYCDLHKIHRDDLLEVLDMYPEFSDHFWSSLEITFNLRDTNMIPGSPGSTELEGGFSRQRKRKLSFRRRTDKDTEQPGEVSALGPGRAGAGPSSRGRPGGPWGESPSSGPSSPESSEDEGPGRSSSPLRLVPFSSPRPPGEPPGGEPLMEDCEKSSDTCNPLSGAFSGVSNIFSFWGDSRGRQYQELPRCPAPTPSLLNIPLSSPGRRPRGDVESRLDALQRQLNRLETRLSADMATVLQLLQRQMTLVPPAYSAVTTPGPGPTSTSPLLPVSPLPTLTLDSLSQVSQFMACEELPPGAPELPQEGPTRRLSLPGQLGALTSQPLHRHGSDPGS
T1 sequence (P03372 whole entry): as the sequence (P03372 whole entry) above
Experimental for hERG potassium channel: The assay was conducted as follows with all reagents used at room temperature unless otherwise stated.
All compounds were acoustically dispensed in quadruplicate using a Labcyte Echo.
Calculation of results is performed using APC package within Genedata. For the routine normalization of well data with Neutral and Inhibitor control well groups as reference, GeneData Assay Analyzer uses the following equation to normalize the signal values to the desired signal range:
[formula] x is the measured raw signal value of a well is the median of the measured signal values for the Central Reference (Neutral) wells on a plate is the median of the measured signal values for the Scale Reference (Inhibitor) wells on a plate CR is the desired median normalized value for the Central Reference (Neutral) SR is the desired median normalized value for the Scale Reference (Inhibitor)

Turning to `Cc1c(OCCNCCCF)ccnc1[C@@H]1c2[nH]c3ccccc3c2C[C@@H](C)N1CC(F)(F)CO` [Example 96, 2,2-difluoro-3-((1S,3R)-1-(4-(2-((3-fluoropropyl)amino)ethoxy)-3-methylpyridin-2-yl)-3-methyl-1,3,4,9-tetrahydro-2H-pyrido[3,4-b]indol-2-yl)propan-1-ol], the negative logarithm of the IC50 (pIC50) (commonly the negative decadic logarithm of the IC50, by convention in mol/L) in data set [1] is 8.85; in [2] it was 9.70; against hERG potassium channel, 5.00. In addition, the “CAMA1 Western % ER deg vs Fv” value in data set [3] stood at 100%. Besides, the “MCF7 Western % ER deg vs Fv” value in [4] was determined as 94%. For the same compound, the log distribution coefficient (logD) (commonly the decadic logarithm of the distribution of all forms, ionised or not, between an organic phase and buffer at a given pH) in data set [5] is 2.4. Further, the solubility (usually the dissolved amount per volume that the medium holds) at 24 h in data set [6] is 960 µM (≈ 471 µg/mL). For the same compound, in data set [7], the “Human plasma protein binding (% free)” value is on record as 7.1 % free.

For the compound `C[C@@H]1Cc2c([nH]c3ccccc23)[C@@H](c2nccc(OCCNCCCF)c2F)N1CC(F)(F)CO` [Example 97, 2,2-difluoro-3-((1S,3R)-1-(3-fluoro-4-(2-((3-fluoropropyl)amino)ethoxy)pyridin-2-yl)-3-methyl-1,3,4,9-tetrahydro-2H-pyrido[3,4-b]indol-2-yl)propan-1-ol], the pIC50 in data set [1] was 8.66; in [2], 9.18; against hERG potassium channel, 4.74. For the same compound, the “CAMA1 Western % ER deg vs Fv” value in [3] worked out at 84%. For the same compound, the “MCF7 Western % ER deg vs Fv” value in [4] is 89%. The compound also came in with a logD in [5] of 1.8. This compound showed a solubility at 24 h in data set [6] of more than 1000 µM. The “Human plasma protein binding (% free)” value in data set [7] came out at 6.8 % free.

For the compound `C[C@@H]1Cc2c([nH]c3ccccc23)[C@@H](c2c(F)cnc(OCCNCCCF)c2F)N1CC(F)(F)F` [Example 107, N-(2-((3,5-difluoro-4-((1R,3R)-3-methyl-2-(2,2,2-trifluoroethyl)-2,3,4,9-tetrahydro-1H-pyrido[3,4-b]indol-1-yl)pyridin-2-yl)oxy)ethyl)-3-fluoropropan-1-amine], the pIC50 was 8.89 in [1], 9.68 in data set [2] and 5.09 against hERG potassium channel. For the same compound, the “CAMA1 Western % ER deg vs Fv” value in [3] was 98%. Besides, in [4], the “MCF7 Western % ER deg vs Fv” value worked out at 95%. The log distribution coefficient (logD) in data set [5] was determined as 3.6. The solubility at 24 h in [6] is 120 µM (≈ 60.1 µg/mL). Moreover, the “Human plasma protein binding (% free)” value in [7] is given as 1 % free.

Consider `C[C@]12CC[C@@H]3c4ccc(O)cc4C[C@@H](CCCCCCCCC[S+]([O-])CCCC(F)(F)C(F)(F)F)[C@H]3[C@@H]1CC[C@@H]2O` (stereo partly shown) [Fulvestrant], for which, on ER, the “turnover of the receptor in patient samples” value is given as “less than 50%”.

The values are drawn from US10221173B2, “Chemical compounds” (AstraZeneca AB, priority 2017, dated 2019).
